“And” between values parts separate entries of the source, which are not always exact repeats. Equal values may be shown once. Read-outs that look alike come from different tables or passages of the source. One block for each molecule: values may come before it.
Experiments:
[1] = Toxicity and safety screen, in vitro profiling
Excerpt: This family of AML-therapeutic targets likewise has the flavone backbone (2-phenyl-1,4-benzopyrone) chemical structure, in this case more defined as shown below (see also FIG. 1B), or any pharmaceutically acceptable salt thereof: […]

Normal Bone marrow = assay: Cell viability, normal bone marrow; type: cell-based; conditions: Table 4
Method: (§1) Bioactivity of the above-described compounds has been verified by an anticancer cell proliferation assay using the WST-1 (4-[3-(4-iodophenyl)-2-(4-nitrophenyl)-2H-5-tetrazolio]-1, 3-benzene disulfonate) colorimetric assay by Roche Life Sciences®. Anticancer activity was tested against several standard cancer cell lines including brain, breast, Kaposi sarcoma, leukemia, lung, melanoma, tenosynovial giant cell tumor, ovarian, pancreatic, colon and prostate cancer. Cells were trypsinized and plated into 96 well plates in 50 μl of media and incubated overnight. The next day approximately 18 hours after plating, 50 μl of media containing the required flavonoid-based pharmaceutical composition was added per well. Cells were plated at a density so that 72 hours post drug addition, the cells will be in log phase (500)-2000 cells/well). The compounds and extracts were solubilized in Dimethyl sulfoxide (DMSO). The cells are allowed to proliferate for 72 hours 37° C. in humidified atmosphere of 5% CO2. The experiment is terminated using WST-1 (Roche®) 10 μl per well and absorbance is read at 450 nm %690 nm. The effect of drugs on growth is assessed as percent of cell viability. The IC50 values were determined from the extract dose versus control growth curves using Graphpad Prism® software. All experiments were carried out in duplicate and the mean results determined.

[2] = tested on: MOLM-14 acute myeloid leukemia cell line; assay: WST-1 anticancer cell proliferation assay, MOLM-14; type: cell-based; conditions: Table 4, read-out: Acute Myeloid Leukemia cell lines MOLM-14 IC50
Method: as §1, with “Anticancer” for “Bioactivity of the above-described compounds has been verified by an anticancer cell proliferation assay using the WST-1 (4-[3-(4-iodophenyl)-2-(4-nitrophenyl)-2H-5-tetrazolio]-1, 3-benzene disulfonate) colorimetric assay by Roche Life Sciences®. Anticancer”

[3] = tested on: THP-1 acute myeloid leukemia cell line; assay: WST-1 anticancer cell proliferation assay, THP-1; type: cell-based; conditions: Table 4; read-out: Acute Myeloid Leukemia cell lines THP-1 IC50
Method: as §1, with “Anticancer” for “Bioactivity of the above-described compounds has been verified by an anticancer cell proliferation assay using the WST-1 (4-[3-(4-iodophenyl)-2-(4-nitrophenyl)-2H-5-tetrazolio]-1, 3-benzene disulfonate) colorimetric assay by Roche Life Sciences®. Anticancer”

MV4-11 AML = assay: In-vivo efficacy on MV4-11 AML (mice with FLT3-mutated acute myeloid leukemia); conditions: mouse
Excerpt: The results of the anticancer activity are presented in Tables 3 and 4 (above) and in FIG. 6, Hela cells shown at (A) and CMK cells at (B) and MV4-11 and MOLT-14 acute myeloid leukemia cells.

MV4-11 (Leukemia) = assay: WST-1 anticancer cell proliferation assay, MV4-11; type: cell-based; conditions: Table 4; read-out: Acute Myeloid Leukemia cell lines MV4-11 IC50
Method: as §1, with “Anticancer” for “Bioactivity of the above-described compounds has been verified by an anticancer cell proliferation assay using the WST-1 (4-[3-(4-iodophenyl)-2-(4-nitrophenyl)-2H-5-tetrazolio]-1, 3-benzene disulfonate) colorimetric assay by Roche Life Sciences®. Anticancer”

FLT3(ITD) = target: T1, FLT3(ITD) (Homo sapiens, UniProt P36888); type: binding; conditions: Table 4; read-out: Acute Myeloid Leukemia Kinases FLT3-ITD IC50
T1 construct: In general, full-length constructs were used for small, single domain kinases, and catalytic domain constructs for large multi-domain kinases; fused on or other part: T7 phage fusion or DNA tag for qPCR detection (general statement)
T1 sequence (P36888 1-993): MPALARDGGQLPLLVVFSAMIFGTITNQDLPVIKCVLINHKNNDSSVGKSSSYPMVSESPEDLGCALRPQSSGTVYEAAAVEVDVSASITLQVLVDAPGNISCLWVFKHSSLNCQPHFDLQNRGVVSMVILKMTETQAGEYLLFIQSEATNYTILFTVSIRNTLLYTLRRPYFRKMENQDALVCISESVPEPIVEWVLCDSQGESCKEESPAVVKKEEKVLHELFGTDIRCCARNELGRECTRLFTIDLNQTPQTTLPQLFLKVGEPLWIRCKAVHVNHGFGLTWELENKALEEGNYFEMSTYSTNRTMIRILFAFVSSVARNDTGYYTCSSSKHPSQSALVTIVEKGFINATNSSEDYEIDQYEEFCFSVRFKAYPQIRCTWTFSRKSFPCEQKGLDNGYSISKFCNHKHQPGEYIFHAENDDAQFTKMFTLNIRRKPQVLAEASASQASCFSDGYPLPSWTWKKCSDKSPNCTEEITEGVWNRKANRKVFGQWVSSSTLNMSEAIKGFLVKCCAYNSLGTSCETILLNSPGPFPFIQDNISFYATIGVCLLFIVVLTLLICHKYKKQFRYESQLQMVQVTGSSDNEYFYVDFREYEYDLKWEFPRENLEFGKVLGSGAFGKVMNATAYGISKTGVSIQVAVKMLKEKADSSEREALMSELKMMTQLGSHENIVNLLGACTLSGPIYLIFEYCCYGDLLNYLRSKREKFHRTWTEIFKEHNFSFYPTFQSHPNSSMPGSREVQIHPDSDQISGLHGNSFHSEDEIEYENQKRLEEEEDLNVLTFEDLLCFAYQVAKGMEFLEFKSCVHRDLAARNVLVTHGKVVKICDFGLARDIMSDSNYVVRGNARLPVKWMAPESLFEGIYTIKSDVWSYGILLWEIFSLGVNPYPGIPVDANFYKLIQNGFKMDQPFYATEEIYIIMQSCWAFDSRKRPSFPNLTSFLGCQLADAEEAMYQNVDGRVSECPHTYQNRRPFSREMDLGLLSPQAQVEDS
Method: (§2) Cannabis flavonoids and their analogs were subjected to kinase inhibition assay. The compounds were first screened at a single concentration of 10 μM in the primary assay. […] To determine the kd or IC50 values, competition binding assays were established, authenticated and executed as described previously. […] See also, Karaman et al., “A Quantitative Analysis Of Kinase Inhibitor Selectivity”, Nat. Biotechnol. […] For most assays, kinases were fused to T7 phage strains (Fabian, supra) and for the other assays, kinases were produced in HEK-293 cells after which they were tagged with DNA for quantitative PCR detection. In general, full-length constructs were used for small, single domain kinases, and catalytic domain constructs for large multi-domain kinases. […] The liganded beads were blocked with excess biotin and washed with blocking buffer (SeaBlock (Pierce), 1% BSA, 0.05% Tween 20, 1 mM DTT) to remove unbound ligand and to reduce non-specific phage binding. […] All reactions were performed in polypropylene 384-well plates in a final volume of 0.04 ml. […] The kinase concentration in the eluates was measured by quantitative PCR. An illustration of the kinase interaction process is presented below. Kd/IC50 values were determined using a standard dose response curve using the hill equation. Curves were fitted using a non-linear least square fit with the Levenberg-Marquardt algorithm.

FLT3 = target: T2, FLT3 (Homo sapiens, UniProt P36888); type: binding; conditions: Table 4; read-out: Acute Myeloid Leukemia Kinases FLT3 IC50
T2 construct: made in house
T2 sequence (P36888 27-993): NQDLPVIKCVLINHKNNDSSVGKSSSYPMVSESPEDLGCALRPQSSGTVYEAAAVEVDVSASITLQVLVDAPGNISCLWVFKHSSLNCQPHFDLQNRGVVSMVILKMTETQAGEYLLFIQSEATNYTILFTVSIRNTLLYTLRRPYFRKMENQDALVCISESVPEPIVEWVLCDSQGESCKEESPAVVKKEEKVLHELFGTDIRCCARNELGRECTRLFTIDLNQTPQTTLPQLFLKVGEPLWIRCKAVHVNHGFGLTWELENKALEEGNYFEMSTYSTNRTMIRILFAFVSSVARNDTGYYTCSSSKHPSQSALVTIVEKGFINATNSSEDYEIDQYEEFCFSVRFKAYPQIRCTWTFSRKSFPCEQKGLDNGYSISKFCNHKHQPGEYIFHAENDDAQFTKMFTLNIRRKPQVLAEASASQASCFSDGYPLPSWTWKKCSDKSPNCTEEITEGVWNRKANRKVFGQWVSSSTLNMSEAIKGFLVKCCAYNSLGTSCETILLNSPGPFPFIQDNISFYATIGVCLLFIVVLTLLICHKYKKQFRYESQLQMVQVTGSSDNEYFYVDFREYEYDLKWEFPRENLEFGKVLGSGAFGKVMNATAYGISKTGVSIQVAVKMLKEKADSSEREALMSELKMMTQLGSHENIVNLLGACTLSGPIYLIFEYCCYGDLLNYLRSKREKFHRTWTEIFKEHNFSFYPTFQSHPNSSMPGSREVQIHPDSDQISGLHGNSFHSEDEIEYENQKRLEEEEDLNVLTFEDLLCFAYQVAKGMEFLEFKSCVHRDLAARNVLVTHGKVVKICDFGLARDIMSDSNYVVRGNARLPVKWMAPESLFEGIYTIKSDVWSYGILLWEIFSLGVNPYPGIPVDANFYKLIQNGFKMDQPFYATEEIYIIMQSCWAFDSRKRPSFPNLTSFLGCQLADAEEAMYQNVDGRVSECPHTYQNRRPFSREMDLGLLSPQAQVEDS
Method: as §2

[4] = tested on: 60 cancer cell line panel; conditions: US National Cancer Institute 60 cancer cell line panel, NSC:719330; cited from earlier work

Structure (SMILES): COc1cc(-c2cc(=O)c3c(O)cc(O)cc3o2)ccc1O [FBLGS-70]
toxicity or safety screen issues [1]: no detectable toxicity or safety screen issues
IC50 (Normal Bone marrow): > 100000 nM
IC50 [2]: 1700 nM
IC50 [3]: > 100000 nM
in-vivo efficacy on MV4-11 AML (MV4-11 AML): significant in-vivo efficacy
IC50 (MV4-11 (Leukemia)): 1250 nM

Structure (SMILES): COc1ccc(-c2cc(=O)c3c(O)cc(O)cc3o2)cc1 [FBLGS-73]
IC50 [2]: 3680 nM and 4860 nM
IC50 (FLT3(ITD)): 79 nM and 46 nM
IC50 (FLT3): 127 nM and 152 nM

IC50 ([2]; Homo sapiens, MOLM-14): 22 nM
Structure (SMILES): CO[C@@H]1[C@H](N(C)C(=O)c2ccccc2)C[C@H]2O[C@]1(C)n1c3ccccc3c3c4c(c5c6ccccc6n2c5c31)C(=O)NC4 [Midostaurin, reference compound]

Structure (SMILES): COc1cc(-c2cc(=O)c3c(O)c(CC=C(C)C)c(O)cc3o2)ccc1O [cannflavin B]
cytotoxicity against cancer cells [4]: not cytotoxic
